According to PubChem BioAssay (NCI):
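Here, GI50 denotes the concentration required for 50% inhibition of growth. TGI is the concentration that stops growth completely.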

Experiments:
Test in all cases: NCI tumour cell line growth inhibition, 384-well format
A498 renal = test system: A498 renal
COLO 205 colon = test system: COLO 205 colon
HCT-116 colon = test system: HCT-116 colon
OVCAR-5 ovarian = test system: OVCAR-5 ovarian
OVCAR-8 ovarian = test system: OVCAR-8 ovarian
RPMI-8226 leukemia = test system: RPMI-8226 leukemia
SF-539 CNS = test system: SF-539 CNS
SK-MEL-5 melanoma = test system: SK-MEL-5 melanoma
SK-OV-3 ovarian = test system: SK-OV-3 ovarian
SNB-19 CNS = test system: SNB-19 CNS
SR leukemia = test system: SR leukemia
T-47D breast = test system: T-47D breast
UACC-257 melanoma = test system: UACC-257 melanoma

Row | SMILES | GI50 (A498 renal) | TGI (A498 renal) | GI50 (COLO 205 colon) | TGI (COLO 205 colon) | GI50 (HCT-116 colon) | TGI (HCT-116 colon) | GI50 (OVCAR-5 ovarian) | TGI (OVCAR-5 ovarian) | GI50 (OVCAR-8 ovarian) | TGI (OVCAR-8 ovarian) | GI50 (RPMI-8226 leukemia) | TGI (RPMI-8226 leukemia) | GI50 (SF-539 CNS) | TGI (SF-539 CNS) | GI50 (SK-MEL-5 melanoma) | TGI (SK-MEL-5 melanoma) | GI50 (SK-OV-3 ovarian) | TGI (SK-OV-3 ovarian) | GI50 (SNB-19 CNS) | TGI (SNB-19 CNS) | also measured
1 | Cc1cc2c(cc1C)NC1=C(N2)OC(c2c3ccccc3cc3ccccc23)C1=O (configuration not stated) | 319 nM | 924 nM | 786 nM | 1680 nM | 286 nM | 759 nM | 1300 nM | 5220 nM | 290 nM | 794 nM | 223 nM | 390 nM | 170 nM | 380 nM | 603 nM | 1150 nM | 253 nM | 732 nM | 397 nM | 1540 nM | GI50 (SR leukemia): 189 nM; TGI (SR leukemia): 340 nM; GI50 (T-47D breast): 1070 nM; TGI (T-47D breast): 6250 nM; GI50 (UACC-257 melanoma): 716 nM; TGI (UACC-257 melanoma): 3290 nM
2 | O=C(O)c1ccc(CN2CCC(CN[C@@H]3C[C@H]3c3ccccc3)CC2)cc1 | > 100000 nM | > 100000 nM | > 100000 nM | > 100000 nM | > 100000 nM | > 100000 nM | > 100000 nM | > 100000 nM | > 100000 nM | > 100000 nM | > 100000 nM | > 100000 nM | > 100000 nM | > 100000 nM | > 100000 nM | > 100000 nM | > 100000 nM | > 100000 nM | > 100000 nM | > 100000 nM | GI50 (SR leukemia): > 100000 nM; TGI (SR leukemia): > 100000 nM; GI50 (T-47D breast): > 100000 nM; TGI (T-47D breast): > 100000 nM; GI50 (UACC-257 melanoma): > 100000 nM; TGI (UACC-257 melanoma): > 100000 nM
